Measurements reported in paper PMC3088504 (Bioorganic & medicinal chemistry, 2009).

Target: H1 receptor (Homo sapiens, UniProt P35367)
Test: H1 competitive radioligand binding assay
Details: H1 versus 5-HT2A, from Ki values

H1 receptor, sequence (P35367 whole entry): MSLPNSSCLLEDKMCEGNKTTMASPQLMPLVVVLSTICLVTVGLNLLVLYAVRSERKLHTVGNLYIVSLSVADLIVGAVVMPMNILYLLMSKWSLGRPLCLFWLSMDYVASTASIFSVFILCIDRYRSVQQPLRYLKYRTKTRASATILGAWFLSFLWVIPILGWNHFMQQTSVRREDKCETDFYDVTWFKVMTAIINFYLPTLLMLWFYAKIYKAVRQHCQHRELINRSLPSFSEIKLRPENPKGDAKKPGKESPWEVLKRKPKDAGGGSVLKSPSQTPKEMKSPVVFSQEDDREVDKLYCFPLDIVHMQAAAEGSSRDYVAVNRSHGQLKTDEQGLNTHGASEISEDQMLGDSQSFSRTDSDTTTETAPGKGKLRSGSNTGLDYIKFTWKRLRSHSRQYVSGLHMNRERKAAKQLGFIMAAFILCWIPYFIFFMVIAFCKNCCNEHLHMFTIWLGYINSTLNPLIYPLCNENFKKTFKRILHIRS

CN(C)CCCC1c2ccccc2Cc2ccccc21 [Compound 3c]
selectivity for the H1 receptor: 44 fold
